Patent publication US10501461B2, “Tyrosine amide derivatives as Rho-kinase inhibitors” (CHIESI FARMACEUTICI S.P.A., priority 2017, dated 2019)

Columns and labels:
[1] = molecular target: Rho kinase 2 (ROCK-II) (Homo sapiens, UniProt O75116); assay: In vitro Rho kinase inhibitory activity assay (ADP-Glo), Rho kinase 2; type: biochemical; conditions: 10 μM ATP, 25° C., expressed as range of activity
Procedure, shortened: (§1)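 ADP-Glo luminescence read-out. Enzyme (ROCK1 or ROCK2) + compound 30 min, then 10 μM ATP final, 1 h, 25 °C; 2.5 μM MBP peptide substrate, Tris pH7.5/MgCl2/BSA/DTT buffer, 1% DMSO. IC50 from variable-slope fit (0–100% fixed); Ki via Cheng-Prusoff.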

[2] = molecular target: Rho kinase 1 (ROCK-I) (Homo sapiens, UniProt Q13464); assay: In vitro Rho kinase inhibitory activity assay (ADP-Glo), Rho kinase 1; type: biochemical; conditions: 10 μM ATP, 25° C., expressed as range of activity
Procedure, shortened: as §1

Rho kinase 2 (ROCK-II), sequence (O75116 whole entry): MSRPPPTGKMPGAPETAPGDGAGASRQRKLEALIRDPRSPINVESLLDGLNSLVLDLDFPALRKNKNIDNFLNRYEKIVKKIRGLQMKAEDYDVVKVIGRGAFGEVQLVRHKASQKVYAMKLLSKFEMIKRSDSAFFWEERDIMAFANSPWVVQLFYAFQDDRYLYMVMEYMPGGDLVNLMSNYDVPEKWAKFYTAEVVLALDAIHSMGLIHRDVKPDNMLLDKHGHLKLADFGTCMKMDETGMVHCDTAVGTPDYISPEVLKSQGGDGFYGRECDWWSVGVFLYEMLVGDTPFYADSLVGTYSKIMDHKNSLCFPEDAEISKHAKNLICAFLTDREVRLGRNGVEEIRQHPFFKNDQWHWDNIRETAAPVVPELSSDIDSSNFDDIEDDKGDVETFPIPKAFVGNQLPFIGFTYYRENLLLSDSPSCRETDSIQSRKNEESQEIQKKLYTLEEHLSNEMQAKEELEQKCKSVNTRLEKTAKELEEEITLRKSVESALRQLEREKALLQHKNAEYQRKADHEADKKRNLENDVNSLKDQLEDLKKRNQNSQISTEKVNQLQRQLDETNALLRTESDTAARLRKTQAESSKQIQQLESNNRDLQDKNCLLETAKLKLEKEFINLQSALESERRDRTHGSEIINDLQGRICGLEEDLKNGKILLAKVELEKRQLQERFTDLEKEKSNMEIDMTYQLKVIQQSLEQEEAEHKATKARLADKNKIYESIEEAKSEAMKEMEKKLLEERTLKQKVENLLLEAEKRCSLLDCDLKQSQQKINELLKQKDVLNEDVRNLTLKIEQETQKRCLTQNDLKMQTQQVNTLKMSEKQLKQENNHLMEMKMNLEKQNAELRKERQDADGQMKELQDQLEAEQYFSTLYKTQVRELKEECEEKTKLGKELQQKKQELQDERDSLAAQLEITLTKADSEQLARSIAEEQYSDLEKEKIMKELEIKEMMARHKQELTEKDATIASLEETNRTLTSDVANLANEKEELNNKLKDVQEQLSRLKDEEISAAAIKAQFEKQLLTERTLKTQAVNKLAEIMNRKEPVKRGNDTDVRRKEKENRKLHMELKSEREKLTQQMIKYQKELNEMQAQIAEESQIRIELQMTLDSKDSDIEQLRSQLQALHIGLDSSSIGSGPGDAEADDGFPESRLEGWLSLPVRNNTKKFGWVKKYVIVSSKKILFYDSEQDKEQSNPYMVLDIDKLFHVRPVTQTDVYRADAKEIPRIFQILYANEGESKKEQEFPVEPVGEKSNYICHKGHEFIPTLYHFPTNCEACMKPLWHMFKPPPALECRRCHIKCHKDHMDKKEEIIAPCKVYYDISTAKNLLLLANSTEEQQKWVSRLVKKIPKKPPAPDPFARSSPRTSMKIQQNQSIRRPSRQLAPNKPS
Rho kinase 1 (ROCK-I), sequence (Q13464 whole entry): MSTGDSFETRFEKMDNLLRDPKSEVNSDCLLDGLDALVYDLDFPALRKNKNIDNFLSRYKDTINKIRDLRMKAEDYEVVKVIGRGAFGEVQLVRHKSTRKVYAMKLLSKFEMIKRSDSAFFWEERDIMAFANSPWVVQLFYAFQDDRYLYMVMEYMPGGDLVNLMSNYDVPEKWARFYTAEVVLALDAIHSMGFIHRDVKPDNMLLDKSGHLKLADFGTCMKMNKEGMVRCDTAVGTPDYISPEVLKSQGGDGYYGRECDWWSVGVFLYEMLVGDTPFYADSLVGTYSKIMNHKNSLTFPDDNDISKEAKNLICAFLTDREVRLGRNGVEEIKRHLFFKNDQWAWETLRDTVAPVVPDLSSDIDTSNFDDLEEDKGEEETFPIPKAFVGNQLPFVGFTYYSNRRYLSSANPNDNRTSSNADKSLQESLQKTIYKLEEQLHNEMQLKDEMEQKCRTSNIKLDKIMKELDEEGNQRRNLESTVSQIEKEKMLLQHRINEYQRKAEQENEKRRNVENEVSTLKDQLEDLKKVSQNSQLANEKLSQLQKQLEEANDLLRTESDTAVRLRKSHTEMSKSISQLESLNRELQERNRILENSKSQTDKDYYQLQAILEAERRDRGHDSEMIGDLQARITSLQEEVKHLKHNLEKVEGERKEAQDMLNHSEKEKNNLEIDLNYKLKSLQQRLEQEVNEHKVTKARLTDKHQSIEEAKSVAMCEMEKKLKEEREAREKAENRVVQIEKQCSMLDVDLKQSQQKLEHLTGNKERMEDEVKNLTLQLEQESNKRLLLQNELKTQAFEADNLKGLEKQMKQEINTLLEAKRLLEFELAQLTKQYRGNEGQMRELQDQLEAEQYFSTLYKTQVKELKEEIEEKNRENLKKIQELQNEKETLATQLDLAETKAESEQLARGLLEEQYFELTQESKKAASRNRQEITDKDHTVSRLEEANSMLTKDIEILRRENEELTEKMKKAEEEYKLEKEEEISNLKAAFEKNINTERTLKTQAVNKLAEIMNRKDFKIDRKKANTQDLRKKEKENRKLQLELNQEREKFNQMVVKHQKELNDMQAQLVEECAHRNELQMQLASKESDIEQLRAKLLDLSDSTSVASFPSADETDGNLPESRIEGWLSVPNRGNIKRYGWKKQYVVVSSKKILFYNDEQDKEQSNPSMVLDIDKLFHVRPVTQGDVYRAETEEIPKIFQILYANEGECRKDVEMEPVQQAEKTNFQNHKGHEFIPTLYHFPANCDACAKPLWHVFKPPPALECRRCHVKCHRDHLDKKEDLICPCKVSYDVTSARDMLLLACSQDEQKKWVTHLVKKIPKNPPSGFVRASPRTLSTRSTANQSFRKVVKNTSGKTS

Row | SMILES | Ki [1] | Ki [2]
1 | Cc1c[nH]c2nccc(Oc3ccc(C[C@H](N)C(=O)N4CCN(C(=O)c5nccs5)CC4)cc3F)c12 [Example 177, (S)-2-amino-3-(3-fluoro-4-((3-methyl-1H-pyrrolo[2,3-b]pyridin-4-yl)oxy)phenyl)-1-(4-(thiazole-2-carbonyl)piperazin-1-yl)propan-1-one] | < 3 nM | < 3 nM
2 | CN(C)C(=O)C(Cc1ccc(Oc2ccnc3[nH]ccc23)cc1)NC(=O)C1CCNC1 (stereo not shown) [Example 178, N-(3-(4-((1H-pyrrolo[2,3-b]pyridin-4-yl)oxy)phenyl)-1-(dimethylamino)-1-oxopropan-2-yl)pyrrolidine-3-carboxamide] | > 30 nM | > 30 nM
3 | O=C(NC(Cc1ccc(Oc2ccnc3[nH]ccc23)cc1)C(=O)Nc1ccccc1)C1CCNC1 (stereo not shown) [Example 179, N-(3-(4-((1H-pyrrolo[2,3-b]pyridin-4-yl)oxy)phenyl)-1-oxo-1-(phenylamino)propan-2-yl)pyrrolidine-3-carboxamide] | 3 to 30 nM | 3 to 30 nM
4 | O=C(NC(Cc1ccc(Oc2ccnc3[nH]ccc23)cc1)C(=O)NC1CCCCC1)C1CCNC1 (stereo not shown) [Example 180, N-(3-(4-((1H-pyrrolo[2,3-b]pyridin-4-yl)oxy)phenyl)-1-(cyclohexylamino)-1-oxopropan-2-yl)pyrrolidine-3-carboxamide] | 3 to 30 nM | 3 to 30 nM
5 | CN(C)CCNC(=O)C(Cc1ccc(Oc2ccnc3[nH]ccc23)cc1)NC(=O)C1CCCCC1 (stereo not shown) [Example 181, N-(3-(4-((1H-pyrrolo[2,3-b]pyridin-4-yl)oxy)phenyl)-1-((2-(dimethylamino)ethyl)amino)-1-oxopropan-2-yl)cyclohexanecarboxamide] | > 30 nM | > 30 nM
6 | CN(C)C(Cc1ccc(Oc2ccnc3[nH]ccc23)cc1)C(=O)NC1CCOCC1 (stereo not shown) [Example 182, 3-(4-((1H-pyrrolo[2,3-b]pyridin-4-yl)oxy)phenyl)-2-(dimethylamino)-N-(tetrahydro-2H-pyran-4-yl)propanamide] | > 30 nM | > 30 nM
7 | CN(C)C(Cc1ccc(Oc2ccnc3[nH]ccc23)cc1)C(=O)NC1CCCCC1 (stereo not shown) [Example 183, 3-(4-((1H-pyrrolo[2,3-b]pyridin-4-yl)oxy)phenyl)-N-cyclohexyl-2-(dimethylamino)propanamide] | 3 to 30 nM | > 30 nM
8 | Cc1c[nH]c2nccc(Oc3ccc(C[C@@H](C(=O)NC4CCCCC4)N(C)C)cc3)c12 [Example 184, (S)—N-cyclohexyl-2-(dimethylamino)-3-(4-((3-methyl-1H-pyrrolo[2,3-b]pyridin-4-yl)oxy)phenyl)propanamide] | < 3 nM | < 3 nM
9 | CNC(=O)C(Cc1ccc(Oc2ccnc3[nH]ccc23)cc1)NCC1CCCCC1 (stereo not shown) [Example 185, 3-(4-((1H-pyrrolo[2,3-b]pyridin-4-yl)oxy)phenyl)-2-((cyclohexylmethyl)amino)-N-methylpropanamide] | > 30 nM | > 30 nM
10 | N[C@@H](Cc1ccc(Oc2ccnc3[nH]cc(Br)c23)c(F)c1)C(=O)NC1CCCCC1 [Example 186, (S)-2-amino-3-(4-((3-bromo-1H-pyrrolo[2,3-b]pyridin-4-yl)oxy)-3-fluorophenyl)-N-cyclohexylpropanamide] | < 3 nM | < 3 nM
11 | N[C@@H](Cc1ccc(Oc2ccnc3[nH]cc(Br)c23)cc1)C(=O)NC1CCCCC1 [Example 188, (S)-2-amino-3-(4-((3-bromo-1H-pyrrolo[2,3-b]pyridin-4-yl)oxy)phenyl)-N-cyclohexylpropanamide] | < 3 nM | < 3 nM
12 | N[C@@H](Cc1ccc(Oc2ccnc3[nH]cc(Br)c23)cc1)C(=O)NC1CCOCC1 [Example 189, (S)-2-amino-3-(4-((3-bromo-1H-pyrrolo[2,3-b]pyridin-4-yl)oxy)phenyl)-N-(tetrahydro-2H-pyran-4-yl)propanamide] | < 3 nM | < 3 nM
13 | N[C@@H](Cc1ccc(Oc2ccnc3[nH]cc(I)c23)cc1)C(=O)NC1CCCCC1 [Example 190, (S)-2-amino-N-cyclohexyl-3-(4-((3-iodo-1H-pyrrolo[2,3-b]pyridin-4-yl)oxy)phenyl)propanamide] | < 3 nM | < 3 nM
14 | N[C@@H](Cc1ccc(Oc2ccnc3[nH]cc(Cl)c23)cc1)C(=O)NC1CCCCC1 [Example 191, (S)-2-amino-3-(4-((3-chloro-1H-pyrrolo[2,3-b]pyridin-4-yl)oxy)phenyl)-N-cyclohexylpropanamide] | < 3 nM | < 3 nM
15 | N[C@@H](Cc1ccc(Oc2ccnc3[nH]cc(C4CC4)c23)cc1)C(=O)NC1CCCCC1 [Example 203, (S)-2-amino-N-cyclohexyl-3-(4-((3-cyclopropyl-1H-pyrrolo[2,3-b]pyridin-4-yl)oxy)phenyl)propanamide] | < 3 nM | < 3 nM

Now from value to compound:

Row | Ki [1] | Ki [2] | SMILES
16 | < 3 nM | < 3 nM | Cc1c[nH]c2nccc(Oc3ccc(C[C@H](N)C(=O)N4CCN(C(=O)c5cnn(C)c5)CC4)cc3F)c12 [Example 175, (S)-2-amino-3-(3-fluoro-4-((3-methyl-1H-pyrrolo[2,3-b]pyridin-4-yl)oxy)phenyl)-1-(4-(1-methyl-1H-pyrazole-4-carbonyl)piperazin-1-yl)propan-1-one]
17 | < 3 nM | 3 to 30 nM | Cc1c[nH]c2nccc(Oc3ccc(C[C@H](N)C(=O)N4CCN(C(=O)c5cn(C)cn5)CC4)cc3F)c12 [Example 176, (S)-2-amino-3-(3-fluoro-4-((3-methyl-1H-pyrrolo[2,3-b]pyridin-4-yl)oxy)phenyl)-1-(4-(1-methyl-1H-imidazole-4-carbonyl)piperazin-1-yl)propan-1-one]
18 | < 3 nM | < 3 nM | N[C@@H](Cc1ccc(Oc2ccnc3[nH]cc(Br)c23)c(F)c1)C(=O)N1CCN(Cc2ccccc2)CC1 [Example 187, (S)-2-amino-1-(4-benzylpiperazin-1-yl)-3-(4-((3-bromo-1H-pyrrolo[2,3-b]pyridin-4-yl)oxy)-3-fluorophenyl)propan-1-one]
19 | < 3 nM | < 3 nM | N[C@@H](Cc1ccc(Oc2ccnc3[nH]cc(-c4ccncc4)c23)cc1)C(=O)N1CCN(Cc2ccccc2)CC1 [Example 192, (S)-2-amino-1-(4-benzylpiperazin-1-yl)-3-(4-((3-(pyridin-4-yl)-1H-pyrrolo[2,3-b]pyridin-4-yl)oxy)phenyl)propan-1-one]
20 | 3 to 30 nM | 3 to 30 nM | CCn1nccc1-c1c[nH]c2nccc(Oc3ccc(C[C@H](N)C(=O)N4CCN(Cc5ccccc5)CC4)cc3)c12 [Example 193, (S)-2-amino-1-(4-benzylpiperazin-1-yl)-3-(4-((3-(1-ethyl-1H-pyrazol-5-yl)-1H-pyrrolo[2,3-b]pyridin-4-yl)oxy)phenyl)propan-1-one]
21 | < 3 nM | < 3 nM | N[C@@H](Cc1ccc(Oc2ccnc3[nH]cc(-c4cccnc4)c23)cc1)C(=O)N1CCN(Cc2ccccc2)CC1 [Example 194, (S)-2-amino-1-(4-benzylpiperazin-1-yl)-3-(4-((3-(pyridin-3-yl)-1H-pyrrolo[2,3-b]pyridin-4-yl)oxy)phenyl)propan-1-one]
22 | < 3 nM | < 3 nM | N#Cc1ccc(-c2c[nH]c3nccc(Oc4ccc(C[C@H](N)C(=O)N5CCN(Cc6ccccc6)CC5)cc4)c23)s1 [Example 195, (S)-5-(4-(4-(2-amino-3-(4-benzylpiperazin-1-yl)-3-oxopropyl)phenoxy)-1H-pyrrolo[2,3-b]pyridin-3-yl)thiophene-2-carbonitrile]
23 | < 3 nM | < 3 nM | N[C@@H](Cc1ccc(Oc2ccnc3[nH]cc(-c4cncs4)c23)cc1)C(=O)N1CCN(Cc2ccccc2)CC1 [Example 196, (S)-2-amino-1-(4-benzylpiperazin-1-yl)-3-(4-((3-(thiazol-5-yl)-1H-pyrrolo[2,3-b]pyridin-4-yl)oxy)phenyl)propan-1-one]
24 | < 3 nM | < 3 nM | Cn1cncc1-c1c[nH]c2nccc(Oc3ccc(C[C@H](N)C(=O)N4CCN(Cc5ccccc5)CC4)cc3)c12 [Example 197, (S)-2-amino-1-(4-benzylpiperazin-1-yl)-3-(4-((3-(1-methyl-1H-imidazol-5-yl)-1H-pyrrolo[2,3-b]pyridin-4-yl)oxy)phenyl)propan-1-one]
25 | < 3 nM | < 3 nM | N[C@@H](Cc1ccc(Oc2ccnc3[nH]cc(-c4cnoc4)c23)cc1)C(=O)N1CCN(Cc2ccccc2)CC1 [Example 198, (S)-2-amino-1-(4-benzylpiperazin-1-yl)-3-(4-((3-(isoxazol-4-yl)-1H-pyrrolo[2,3-b]pyridin-4-yl)oxy)phenyl)propan-1-one]
26 | < 3 nM | < 3 nM | N[C@@H](Cc1ccc(Oc2ccnc3[nH]cc(-c4ccccc4)c23)cc1)C(=O)N1CCN(Cc2ccccc2)CC1 [Example 199, (S)-2-amino-1-(4-benzylpiperazin-1-yl)-3-(4-((3-phenyl-1H-pyrrolo[2,3-b]pyridin-4-yl)oxy)phenyl)propan-1-one]
27 | < 3 nM | < 3 nM | N[C@@H](Cc1ccc(Oc2ccnc3[nH]cc(-c4ccc(O)cc4)c23)cc1)C(=O)N1CCN(Cc2ccccc2)CC1 [Example 200, (S)-2-amino-1-(4-benzylpiperazin-1-yl)-3-(4-((3-(4-hydroxyphenyl)-1H-pyrrolo[2,3-b]pyridin-4-yl)oxy)phenyl)propan-1-one]
28 | < 3 nM | < 3 nM | N[C@@H](Cc1ccc(Oc2ccnc3[nH]cc(C4=CCOC4)c23)cc1)C(=O)N1CCN(Cc2ccccc2)CC1 [Example 201, (S)-2-amino-1-(4-benzylpiperazin-1-yl)-3-(4-((3-(2,5-dihydrofuran-3-yl)-1H-pyrrolo[2,3-b]pyridin-4-yl)oxy)phenyl)propan-1-one]
29 | 3 to 30 nM | 3 to 30 nM | N[C@@H](Cc1ccc(Oc2ccnc3[nH]cc(C4=CCNC4)c23)cc1)C(=O)N1CCN(Cc2ccccc2)CC1 [Example 202, (S)-2-amino-1-(4-benzylpiperazin-1-yl)-3-(4-((3-(2,5-dihydro-1H-pyrrol-3-yl)-1H-pyrrolo[2,3-b]pyridin-4-yl)oxy)phenyl)propan-1-one]
